Experimental data taken from the NIST ThermoML archive (doi:10.1016/j.jct.2006.10.008).

What was measured:
[1] = excess molar enthalpy (molar enthalpy of mixing); xn = mol fraction of the nth substance listed; details: 298.15 K, 101 kPa, Liquid, Calvet calorimetry
[2] = xn = mol fraction of the nth substance listed; details: 298.15 K, 101 kPa, Liquid

ClCCCCCCl [1,5-dichloropentane] + COC=O
Details | excess molar enthalpy [kcal/mol] | mass density [kg/m3]
[1], x2 = 0.1095 | 0.0523 | –
[1], x2 = 0.2232 | 0.0884 | –
[1], x2 = 0.3299 | 0.1192 | –
[1], x2 = 0.4118 | 0.1356 | –
[1], x2 = 0.4763 | 0.1457 | –
[1], x2 = 0.5269 | 0.1465 | –
[1], x2 = 0.5661 | 0.1483 | –
[1], x2 = 0.613 | 0.1504 | –
[1], x2 = 0.6627 | 0.1476 | –
[1], x2 = 0.7114 | 0.1441 | –
[1], x2 = 0.7734 | 0.1339 | –
[1], x2 = 0.8369 | 0.1151 | –
[1], x2 = 0.88 | 0.09362 | –
[1], x2 = 0.9328 | 0.0669 | –
[1], x2 = 0.9693 | 0.0361 | –
[2], x2 = 0.1169 | – | 1086.48
[2], x2 = 0.2211 | – | 1077.88
[2], x2 = 0.3054 | – | 1070.16
[2], x2 = 0.3849 | – | 1062.32
[2], x2 = 0.4622 | – | 1054
[2], x2 = 0.5291 | – | 1046.2
[2], x2 = 0.5925 | – | 1038.15
[2], x2 = 0.6496 | – | 1030.38
[2], x2 = 0.7004 | – | 1022.87
[2], x2 = 0.7481 | – | 1015.48
[2], x2 = 0.792 | – | 1008.18
[2], x2 = 0.8333 | – | 1001
[2], x2 = 0.8711 | – | 993.92
[2], x2 = 0.9066 | – | 986.88
[2], x2 = 0.94 | – | 980.05
[2], x2 = 0.9705 | – | 973.45
